Laboratory results published in patent US5106407A, “Iodones and methods for antimicrobial use” (priority 1989, dated 1992).
In brackets after ≈: the same amount, converted by molar mass. Where two headings read alike, the source gives them in different places.

Experiments:
Experiment in all cases: minimum inhibitory concentration (MIC), agar dilution
Assay type in all cases: cell-based
[1] = test system: Bacillus subtilis
Method: (§1) The minimum inhibitory concentration (MIC) for the compound of Example 19, i.e., (2-nitrophenyl)-iodonium 2,2-dimethyl-4,6-dioxo-1,3-dioxan-5-ylide was determined for 9 bacteria (using nutrient agar) and 5 yeast and fungi (using malt yeast agar). A one percent solution of this test compound (i.e., the compound of Example 19) was prepared in a mixture of acetone-water. Nutrient agar was prepared at pH 6.8 using deionized water according to standard Difco procedures. Malt yeast agar was prepared by adding 3 g Bacto yeast extract and 42 g Bacto Malt agar per liter of deionized water. The agar (nutrient agar when testing with bacteria and malt yeast agar when testing with yeast and fungi) was dispensed in 30 mL aliquots into 25×200 millimeter (mm) test tubes, capped and autoclaved for 15 min at 115° C. The test tubes containing the agar were cooled in a water bath until the temperature of the agar was 48° C. and then an appropriate amount of the one percent solution of the test compound was added (except in the controls where no test compound was added with the acetone-water) to the respective test tubes so that final concentrations of 500, 250, 100, 50, 25, 10, 5, 2.5, 1.0 and 0 parts per million (ppm) of the test compound in the agar were obtained. The agar solutions were each mixed and poured into individual petri plates so that each petri plate contained agar having a known concentration of test compound dispersed therein. After drying for 24 hr, the petri plates were inoculated with bacteria when the petri plates contained nutrient broth agar or with fungi and yeast when the petri plates contained malt yeast agar.
(§2) The inoculation with bacteria was accomplished using the following procedure. Twenty-four hr cultures of each of the bacteria were prepared by incubating the respective bacteria in tubes containing nutrient broth for 24 hr at 30° C. in a shaker. Dilutions of each of the 24 hr cultures were made so that 9 separate suspensions (one for each of the 9 test bacteria) were made, each containing about 10^8 colony forming units (CFU) per mL of suspension of a particular bacteria. Aliquots of 0.3 mL of each of the above suspensions were used to fill individual wells of a Steer's Replicator. For each microbial suspension, 0.3 mL was used to fill 3 wells (i.e., 3 wells of 0.3 mL each) so that for the 9 different bacteria 27 wells were filled. The Steer's Replicator was then used to inoculate the petri plates.
(§3) The petri plates were incubated at 30° C. for 48 hr and then read to determine if the test compound (i.e., the compound of Example 19) which was incorporated into the agar prevented growth of the respective bacteria. The minimum inhibitory concentration (MIC) for each bacteria was defined as the lowest concentration of the test compound which prevented growth of that bacteria.
(§4) In a similar procedure, the MIC (in ppm) of the compound of Example 11 (i.e., (2-nitrophenyl)-iodonium 2,6-dioxocyclohexylide) for various organisms was determined at an acid pH (about 6.8) and at an alkaline pH (about 8.2).
(§5) Using similar procedures, the MIC's (in ppm) of various compounds of Formula I and/or Formula II were determined for the organisms Enterobacter aerogenes and Bacillus subtilis in a neutral solution (pH about 6.8) and in an alkaline medium (pH about 8.2).

[2] = test system: Enterobacter aerogenes
Method: as §1, §2, §3, §4, §5

[3] = test system: Escherichia coli; settings: ATCC 11229
Method: as §1, §2, §3, §4

[4] = test system: Klebsiella pneumoniae; settings: ATCC 8308
Method: as §1, §2, §3, §4

[5] = test system: Proteus vulgaris; settings: ATCC 881
Method: as §1, §2, §3, §4

[6] = test system: Pseudomonas aeruginosa PRD-10; settings: ATCC 15442
Method: as §1, §2, §3, §4

[7] = test system: Pseudomonas aeruginosa; settings: ATCC 10145
Method: as §1, §2, §3, §4

[8] = test system: Salmonella choleraesuis
Method: as §1, §2, §3, §4

[9] = test system: Staphylococcus aureus; settings: ATCC 8538
Method: as §1, §2, §3, §4

[10] = Bacillus subtilis, alkaline growth medium (pH = 8.2), read-out: MIC (ABS)
[11] = Bacillus subtilis, neutral growth medium (pH = 6.8), read-out: MIC (NBS)
[12] = Klebsiella aerogenes, alkaline growth medium (pH = 8.2), read-out: MIC (AEA)
[13] = Klebsiella aerogenes, neutral growth medium (pH = 6.8), read-out: MIC (NEA)

Compound: O=C1CCCC(=O)[C-]1[I+]c1ccccc1[N+](=O)[O-] [Example 1, (2-nitrophenyl)-iodonium 2,6-dioxocyclohexylide]
- MIC ([1]; ATCC 8473, Alkaline Medium (pH about 8.2)): ≤ 1.0 ppm
- MIC ([1]; Bacillus subtilis, ATCC8473, ATCC 8473, Neutral Medium (pH about 6.8), read-out: MIC): ≤ 1 µg/mL
- MIC ([2]; ATCC 13048, Alkaline Medium (pH about 8.2)): ≤ 1.0 ppm
- MIC ([2]; Klebsiella aerogenes, ATCC13048, ATCC 13048, Neutral Medium (pH about 6.8), read-out: MIC): ≤ 1 µg/mL
- MIC ([3]; Alkaline Medium (pH about 8.2)): ≤ 1.0 ppm
- MIC ([3]; Escherichia coli, ATCC11229, Neutral Medium (pH about 6.8), read-out: MIC): ≤ 1 µg/mL
- MIC ([4]; Alkaline Medium (pH about 8.2)): ≤ 1.0 ppm
- MIC ([4]; Klebsiella pneumoniae, ATCC8308, Neutral Medium (pH about 6.8), read-out: MIC): ≤ 1 µg/mL
- MIC ([5]; Alkaline Medium (pH about 8.2)): ≤ 1.0 ppm
- MIC ([5]; Proteus vulgaris, ATCC881, Neutral Medium (pH about 6.8), read-out: MIC): ≤ 1 µg/mL
- MIC ([6]; Alkaline Medium (pH about 8.2)): ≤ 1.0 ppm
- MIC ([6]; Pseudomonas aeruginosa, ATCC15442, Neutral Medium (pH about 6.8), read-out: MIC): ≤ 1 µg/mL
- MIC ([7]; Alkaline Medium (pH about 8.2)): ≤ 1.0 ppm
- MIC ([7]; Pseudomonas aeruginosa, ATCC10145, Neutral Medium (pH about 6.8), read-out: MIC): ≤ 1 µg/mL
- MIC ([8]; ATCC 10708, Alkaline Medium (pH about 8.2)): ≤ 1.0 ppm
- MIC ([8]; Salmonella enterica, ATCC 10708 / CHOLERAESUIS, Neutral Medium (pH about 6.8), read-out: MIC): ≤ 1 µg/mL
- MIC ([9]; Alkaline Medium (pH about 8.2)): ≤ 1.0 ppm
- MIC ([9]; Staphylococcus aureus, ATCC8538, Neutral Medium (pH about 6.8), read-out: MIC): ≤ 1 µg/mL

Compound: O=c1[nH]c(=O)[c-]([I+]c2ccccc2[N+](=O)[O-])c(=O)[nH]1 [Example 44, (2-Nitrophenyl)-iodonium hexahydro-2,4,6-trioxo-5-pyrimidin-1-ylide]
- MIC [1, 10]: > 500 µg/mL
- MIC [1, 11]: 100 µg/mL (≈ 267 µM)
- MIC [2, 12]: 500 µg/mL (≈ 1330 µM)
- MIC [2, 13]: 100 µg/mL (≈ 267 µM)

Compound: Cc1cc(=O)[c-]([I+]c2ccccc2S(C)(=O)=O)c(=O)o1 [Example 46, ((2-Methylsulfonyl)phenyl)-iodonium 3,4-dihydro-6-methyl-2,4-dioxo-2H-pyran-3-ylide]
- MIC [1, 10]: ≤ 10 µg/mL
- MIC [1, 11]: ≤ 10 µg/mL
- MIC [2, 12]: 50 µg/mL (≈ 123 µM)
- MIC [2, 13]: 100 µg/mL (≈ 246 µM)

Compound: Cc1cc(=O)[c-]([I+]c2ccccc2[N+](=O)[O-])c(=O)o1 [Example 47, (2-Nitrophenyl)-iodonium 3,4-dihydro-6-methyl-2,4-dioxo-2H-pyran-3-ylide]
- MIC [1, 10]: 500 µg/mL (≈ 1340 µM)
- MIC [1, 11]: 25 µg/mL (≈ 67 µM)
- MIC [2, 12]: 500 µg/mL (≈ 1340 µM)
- MIC [2, 13]: 100 µg/mL (≈ 268 µM)

Compound: O=C1c2ccccc2C(=O)[C-]1[I+]c1ccccc1[N+](=O)[O-] [Example 48, (2-Nitrophenyl)-iodonium 2,3-dihydro-1,3-dioxo-1H-indan-2-ylide]
- MIC [1, 10]: 25 µg/mL (≈ 63.6 µM)
- MIC [1, 11]: ≤ 1 µg/mL
- MIC [2, 12]: 250 µg/mL (≈ 636 µM)
- MIC [2, 13]: 50 µg/mL (≈ 127 µM)
